≈ marks a conversion by molar mass, not a printed value. Where a SMILES comes first, the peptide text is derived from it. [ ]: non-standard residue; d: D form. The star is where a group is joined. Desaminotyrosyl = O=C(CCc1ccc(O)cc1)*; X1 = O=C(/C=C/c1ccc(O)cc1)*; Orn = NCCC[C@H](N)C(=O)O; X2 = O=C(/C=C/c1ccccc1)*
How the values were obtained:
Bacillus subtilis = assay: Antibacterial activity against Bacillus subtilis NCIM 2063; assay type: functional
Pseudomonas aeruginosa = assay: Antibacterial activity against Pseudomonas aeruginosa MTCCB 741; assay type: functional
Escherichia coli [1] = assay: Antibacterial activity against Escherichia coli MTCCB 1610; assay type: functional
Staphylococcus aureus = assay: Antibacterial activity against Staphylococcus aureus MTCCB 96; assay type: functional
Escherichia coli [2] = assay: Antibacterial activity against Escherichia coli
[3] = Toxicity against human red blood cells assessed as lysis upto 1000 ug/mL; assay type: cell-based, Erythrocyte; conditions: read-out: Activity

Compound | MIC (Bacillus subtilis) [µg/mL] | MIC (Pseudomonas aeruginosa) [µg/mL] | MIC (Escherichia coli [1]) [µg/mL] | MIC (Staphylococcus aureus) [µg/mL] | MIC (Escherichia coli [2]) [µg/mL] | hemolysis [3] [%]
GENTAMICIN | 0.03 | 1 | 0.25 | 0.062 | – | –
CN(C)[C@@H]1C(O)=C(C(N)=O)C(=O)[C@@]2(O)C(O)=C3C(=O)c4c(O)cccc4[C@@](C)(O)[C@H]3C[C@@H]12 [TETRACYCLINE] | 0.125 (≈ 0.281 µM) | 1 (≈ 2.25 µM) | 0.5 (≈ 1.13 µM) | 0.25 (≈ 0.563 µM) | 2 (≈ 4.5 µM) | –
NCCC[C@H](NC(=O)/C=C/c1ccc(O)cc1)C(=O)N[C@@H](CCCN)C(=O)N[C@@H](Cc1ccccc1)C(=O)N[C@@H](Cc1ccccc1)C(N)=O (X1-[Orn][Orn]FF-NH2) | 2 (≈ 2.92 µM) | 2 (≈ 2.92 µM) | 4 (≈ 5.83 µM) | 32 (≈ 46.7 µM) | 8 (≈ 11.7 µM) | 0
NCCC[C@H](NC(=O)[C@@H](N)CCCN)C(=O)N[C@@H](Cc1c[nH]c2ccccc12)C(=O)N[C@@H](Cc1c[nH]c2ccccc12)C(N)=O (H-[Orn][Orn]WW-NH2) | 512 (≈ 829 µM) | 256 (≈ 414 µM) | 512 (≈ 829 µM) | 128 (≈ 207 µM) | 256 (≈ 414 µM) | 0
NCCC[C@H](NC(=O)/C=C/c1ccc(O)cc1)C(=O)N[C@@H](CCCN)C(=O)N[C@@H](Cc1c[nH]c2ccccc12)C(=O)N[C@@H](Cc1c[nH]c2ccccc12)C(=O)O (X1-[Orn][Orn]WW-OH) | 128 (≈ 167 µM) | 64 (≈ 83.7 µM) | 64 (≈ 83.7 µM) | 128 (≈ 167 µM) | 128 (≈ 167 µM) | 0
NCCC[C@H](NC(=O)/C=C/c1ccccc1)C(=O)N[C@@H](CCCN)C(=O)N[C@@H](Cc1c[nH]c2ccccc12)C(=O)N[C@@H](Cc1c[nH]c2ccccc12)C(N)=O (X2-[Orn][Orn]WW-NH2) | 32 (≈ 42.8 µM) | 16 (≈ 21.4 µM) | 2 (≈ 2.67 µM) | 2 (≈ 2.67 µM) | 4 (≈ 5.35 µM) | 0
CC(=O)N[C@@H](CCCN)C(=O)N[C@@H](CCCN)C(=O)N[C@@H](Cc1c[nH]c2ccccc12)C(=O)N[C@@H](Cc1c[nH]c2ccccc12)C(N)=O (Ac-[Orn][Orn]WW-NH2) | 2 (≈ 3.03 µM) | 128 (≈ 194 µM) | 32 (≈ 48.5 µM) | 2 (≈ 3.03 µM) | 128 (≈ 194 µM) | 0
NCCC[C@H](NC(=O)/C=C/c1ccc(O)cc1)C(=O)N[C@@H](CCCN)C(=O)N[C@@H](Cc1c[nH]c2ccccc12)C(=O)N[C@@H](Cc1c[nH]c2ccccc12)C(N)=O (X1-[Orn][Orn]WW-NH2) | 1 (≈ 1.31 µM) | 2 (≈ 2.62 µM) | 16 (≈ 20.9 µM) | 2 (≈ 2.62 µM) | 8 (≈ 10.5 µM) | 0
NCCC[C@H](NC(=O)CCc1ccc(O)cc1)C(=O)N[C@@H](CCCN)C(=O)N[C@@H](Cc1c[nH]c2ccccc12)C(=O)N[C@@H](Cc1c[nH]c2ccccc12)C(N)=O (Desaminotyrosyl-[Orn][Orn]WW-NH2) | 2 (≈ 2.61 µM) | 32 (≈ 41.8 µM) | 2 (≈ 2.61 µM) | 1 (≈ 1.31 µM) | 4 (≈ 5.22 µM) | 0
NC(=O)[C@H](Cc1c[nH]c2ccccc12)NC(=O)[C@H](Cc1c[nH]c2ccccc12)NC(=O)/C=C/c1ccc(O)cc1 | 1 (≈ 1.87 µM) | < 512 | < 512 | 2 (≈ 3.73 µM) | < 512 | 0
